Assay in all cases: biochemical
Holding throughout (design): KINOMEscan active-site competition binding panel (468 kinase assays), per cent of control at 1000 nM
Holding throughout (settings): KINOMEscan per cent of control (binding competition); read-out: Percent Control

Experiment [1] deals with T1, MINK (Homo sapiens, UniProt Q8N4C8).
T1 construct: gene MINK1
The source says:
(§1) Figure S7 / Percent Control

Experiment [2] deals with GRK3 (Homo sapiens, UniProt P35626).
Text: as §1

The target in experiment [3] is T2, TYK2(JH2domain-pseudokinase) (Homo sapiens, UniProt P29597).
T2 construct: JH2domain-pseudokinase
Text: as §1

In experiment [4] the target is T3, ABL1(M351T)-phosphorylated (Homo sapiens, UniProt P00519, M351T).
T3 construct: phosphorylated
Text: as §1

Experiment [5] concerns the target RET(V804M) (Homo sapiens, UniProt P07949, V804M).
Text: as §1

For experiment [6], the target named is T4, p38-delta (Homo sapiens, UniProt O15264).
T4 construct: gene MAPK13
Text: as §1

Experiment [7] concerns the target SLK (Homo sapiens, UniProt Q9H2G2).
Text: as §1

In experiment [8] the target is CLK4 (Homo sapiens, UniProt Q9HAZ1).
Text: as §1

Experiment [9] concerns the target T5, p38-gamma (Homo sapiens, UniProt P53778).
T5 construct: gene MAPK12
Text: as §1

Experiment [10] concerns the target T6, ABL1(E255K)-phosphorylated (Homo sapiens, UniProt P00519, E255K).
T6 construct: phosphorylated
Text: as §1

The target of experiment [11] is T7, ASK2 (Homo sapiens, UniProt O95382).
T7 construct: gene MAP3K6
Text: as §1

In experiment [12] the target is PRKD3 (Homo sapiens, UniProt O94806).
Text: as §1

Experiment [13] deals with EPHB3 (Homo sapiens, UniProt P54753).
Text: as §1

Experiment [14] addresses LATS2 (Homo sapiens, UniProt Q9NRM7).
Text: as §1

Experiment [15] deals with ZAP70 (Homo sapiens, UniProt P43403).
Text: as §1

The target of experiment [16] is HCK (Homo sapiens, UniProt P08631).
Text: as §1

Experiment [17] concerns the target PIP5K1C (Homo sapiens, UniProt O60331).
Text: as §1

For experiment [18], the target named is WNK1 (Homo sapiens, UniProt Q9H4A3).
Text: as §1

Experiment [19] deals with CAMK2G (Homo sapiens, UniProt Q13555).
Text: as §1

The target of experiment [20] is T8, RSK3(Kin.Dom.2-C-terminal) (Homo sapiens, UniProt Q15349).
T8 construct: gene RPS6KA2; Kin.Dom.2-C-terminal
Text: as §1

For experiment [21], the target named is PAK1 (Homo sapiens, UniProt Q13153).
Text: as §1

Experiment [22] concerns the target CDK9 (Homo sapiens, UniProt P50750).
Text: as §1

Experiment [23] deals with T9, CDK4-cyclinD3 (Homo sapiens, UniProt P11802).
T9 construct: cyclinD3
Text: as §1

Experiment [24] concerns the target RAF1 (Homo sapiens, UniProt P04049).
Text: as §1

T5 sequence (P53778 whole entry): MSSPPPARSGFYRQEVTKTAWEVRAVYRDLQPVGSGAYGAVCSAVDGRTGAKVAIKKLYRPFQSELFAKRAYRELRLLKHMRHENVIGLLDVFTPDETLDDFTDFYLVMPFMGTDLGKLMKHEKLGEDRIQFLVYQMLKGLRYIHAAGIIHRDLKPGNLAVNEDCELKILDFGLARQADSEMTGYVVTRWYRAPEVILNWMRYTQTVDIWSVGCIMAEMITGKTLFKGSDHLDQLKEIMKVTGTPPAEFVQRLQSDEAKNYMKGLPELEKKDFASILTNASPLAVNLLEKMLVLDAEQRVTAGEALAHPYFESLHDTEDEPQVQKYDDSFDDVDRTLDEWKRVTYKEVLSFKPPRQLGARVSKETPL
CAMK2G, sequence (Q13555 whole entry): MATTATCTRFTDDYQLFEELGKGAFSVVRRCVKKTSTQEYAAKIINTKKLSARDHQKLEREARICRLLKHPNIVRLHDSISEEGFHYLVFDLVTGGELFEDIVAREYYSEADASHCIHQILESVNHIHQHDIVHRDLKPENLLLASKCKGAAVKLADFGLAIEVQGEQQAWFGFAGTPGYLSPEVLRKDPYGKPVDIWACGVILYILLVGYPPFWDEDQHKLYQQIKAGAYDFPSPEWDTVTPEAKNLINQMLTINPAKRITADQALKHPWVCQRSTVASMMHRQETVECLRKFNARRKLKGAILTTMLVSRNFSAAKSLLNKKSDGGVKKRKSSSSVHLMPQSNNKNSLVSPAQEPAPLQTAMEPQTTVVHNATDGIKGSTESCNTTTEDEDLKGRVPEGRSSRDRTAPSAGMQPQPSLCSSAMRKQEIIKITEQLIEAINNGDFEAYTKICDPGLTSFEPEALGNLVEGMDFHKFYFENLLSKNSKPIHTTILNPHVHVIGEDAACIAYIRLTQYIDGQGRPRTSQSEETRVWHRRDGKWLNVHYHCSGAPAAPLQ
PRKD3, sequence (O94806 whole entry): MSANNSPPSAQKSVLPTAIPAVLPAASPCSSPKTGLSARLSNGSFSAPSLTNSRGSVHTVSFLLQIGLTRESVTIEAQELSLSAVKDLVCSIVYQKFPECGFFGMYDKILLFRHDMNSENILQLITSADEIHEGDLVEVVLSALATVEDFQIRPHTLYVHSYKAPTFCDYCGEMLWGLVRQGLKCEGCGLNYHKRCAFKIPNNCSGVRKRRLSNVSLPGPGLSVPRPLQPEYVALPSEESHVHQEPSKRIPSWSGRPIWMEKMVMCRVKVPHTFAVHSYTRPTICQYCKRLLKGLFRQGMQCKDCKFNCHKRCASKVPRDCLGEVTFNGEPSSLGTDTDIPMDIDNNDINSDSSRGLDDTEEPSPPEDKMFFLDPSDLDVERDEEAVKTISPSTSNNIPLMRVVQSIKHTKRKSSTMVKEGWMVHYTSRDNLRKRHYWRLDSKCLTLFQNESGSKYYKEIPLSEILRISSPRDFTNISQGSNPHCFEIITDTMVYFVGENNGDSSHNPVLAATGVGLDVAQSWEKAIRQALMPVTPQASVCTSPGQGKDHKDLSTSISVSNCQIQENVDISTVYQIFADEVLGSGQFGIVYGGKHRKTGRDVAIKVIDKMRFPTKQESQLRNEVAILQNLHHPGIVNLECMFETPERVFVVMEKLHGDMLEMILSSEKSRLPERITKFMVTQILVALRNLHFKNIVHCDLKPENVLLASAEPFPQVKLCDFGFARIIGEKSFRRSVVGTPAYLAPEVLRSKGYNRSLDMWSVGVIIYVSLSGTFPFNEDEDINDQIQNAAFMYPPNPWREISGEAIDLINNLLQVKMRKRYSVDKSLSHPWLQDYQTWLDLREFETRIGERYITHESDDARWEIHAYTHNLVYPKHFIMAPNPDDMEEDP
RAF1, sequence (P04049 whole entry): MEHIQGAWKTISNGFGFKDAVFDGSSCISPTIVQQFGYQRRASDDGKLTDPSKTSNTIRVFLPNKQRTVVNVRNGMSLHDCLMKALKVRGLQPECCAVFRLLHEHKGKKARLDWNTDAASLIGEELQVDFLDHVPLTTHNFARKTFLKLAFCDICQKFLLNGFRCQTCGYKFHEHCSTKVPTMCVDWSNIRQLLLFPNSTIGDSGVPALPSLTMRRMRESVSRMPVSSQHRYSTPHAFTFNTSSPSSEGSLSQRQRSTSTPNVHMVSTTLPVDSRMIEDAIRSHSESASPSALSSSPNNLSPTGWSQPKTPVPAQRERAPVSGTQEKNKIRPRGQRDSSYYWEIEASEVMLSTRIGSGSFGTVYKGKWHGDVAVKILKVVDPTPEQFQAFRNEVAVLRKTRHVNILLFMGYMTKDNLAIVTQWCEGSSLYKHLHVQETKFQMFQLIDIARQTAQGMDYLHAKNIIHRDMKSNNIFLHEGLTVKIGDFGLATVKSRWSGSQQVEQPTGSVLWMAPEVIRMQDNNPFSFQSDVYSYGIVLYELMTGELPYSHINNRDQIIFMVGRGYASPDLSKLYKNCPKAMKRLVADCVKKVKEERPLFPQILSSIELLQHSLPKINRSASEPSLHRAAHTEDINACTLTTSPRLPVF
T2 sequence (P29597 whole entry): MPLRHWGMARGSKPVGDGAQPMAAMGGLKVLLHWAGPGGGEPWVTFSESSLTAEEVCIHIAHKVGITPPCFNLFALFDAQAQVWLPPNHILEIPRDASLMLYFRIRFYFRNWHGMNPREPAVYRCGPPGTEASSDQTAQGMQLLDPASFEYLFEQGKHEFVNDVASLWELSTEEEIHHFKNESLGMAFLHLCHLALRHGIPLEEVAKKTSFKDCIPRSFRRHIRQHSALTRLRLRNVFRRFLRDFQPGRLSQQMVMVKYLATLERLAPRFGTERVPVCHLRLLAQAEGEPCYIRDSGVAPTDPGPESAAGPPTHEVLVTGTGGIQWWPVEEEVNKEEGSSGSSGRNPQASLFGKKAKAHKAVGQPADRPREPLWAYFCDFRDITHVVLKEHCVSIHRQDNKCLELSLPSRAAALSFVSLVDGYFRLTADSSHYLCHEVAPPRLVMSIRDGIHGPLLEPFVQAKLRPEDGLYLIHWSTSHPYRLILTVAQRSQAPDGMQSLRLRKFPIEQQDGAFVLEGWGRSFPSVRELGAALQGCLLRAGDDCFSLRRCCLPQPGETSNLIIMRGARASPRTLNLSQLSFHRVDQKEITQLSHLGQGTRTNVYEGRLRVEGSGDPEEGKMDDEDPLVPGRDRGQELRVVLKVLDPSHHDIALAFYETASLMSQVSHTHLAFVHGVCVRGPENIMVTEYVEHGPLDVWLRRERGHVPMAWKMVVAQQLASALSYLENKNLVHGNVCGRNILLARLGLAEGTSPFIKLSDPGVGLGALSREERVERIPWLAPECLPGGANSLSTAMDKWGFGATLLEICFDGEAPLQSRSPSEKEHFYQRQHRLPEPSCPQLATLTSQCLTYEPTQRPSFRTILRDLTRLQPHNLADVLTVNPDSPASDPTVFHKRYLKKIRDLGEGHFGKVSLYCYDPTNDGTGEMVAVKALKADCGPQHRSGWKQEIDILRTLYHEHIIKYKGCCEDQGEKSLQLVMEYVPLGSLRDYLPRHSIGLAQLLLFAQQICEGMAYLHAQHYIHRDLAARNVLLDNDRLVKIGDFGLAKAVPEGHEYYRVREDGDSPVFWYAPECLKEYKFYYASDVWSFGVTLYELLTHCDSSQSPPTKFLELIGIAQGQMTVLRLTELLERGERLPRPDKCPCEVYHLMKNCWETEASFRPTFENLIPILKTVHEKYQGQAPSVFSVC
HCK, sequence (P08631 whole entry): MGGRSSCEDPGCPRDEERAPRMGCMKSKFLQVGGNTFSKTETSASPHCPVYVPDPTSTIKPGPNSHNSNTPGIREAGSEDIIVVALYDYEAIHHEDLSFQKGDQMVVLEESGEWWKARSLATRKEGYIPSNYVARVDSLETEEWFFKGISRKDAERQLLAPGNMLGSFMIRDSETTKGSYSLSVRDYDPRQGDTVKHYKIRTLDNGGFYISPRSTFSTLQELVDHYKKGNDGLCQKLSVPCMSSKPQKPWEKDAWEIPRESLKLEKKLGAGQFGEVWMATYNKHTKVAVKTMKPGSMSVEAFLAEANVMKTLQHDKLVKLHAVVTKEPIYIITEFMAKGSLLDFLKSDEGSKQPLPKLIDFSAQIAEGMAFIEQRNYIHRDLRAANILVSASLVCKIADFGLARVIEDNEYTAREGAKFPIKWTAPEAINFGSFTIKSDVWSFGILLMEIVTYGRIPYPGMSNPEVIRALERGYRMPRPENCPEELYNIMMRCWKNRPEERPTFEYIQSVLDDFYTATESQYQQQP
GRK3, sequence (P35626 whole entry): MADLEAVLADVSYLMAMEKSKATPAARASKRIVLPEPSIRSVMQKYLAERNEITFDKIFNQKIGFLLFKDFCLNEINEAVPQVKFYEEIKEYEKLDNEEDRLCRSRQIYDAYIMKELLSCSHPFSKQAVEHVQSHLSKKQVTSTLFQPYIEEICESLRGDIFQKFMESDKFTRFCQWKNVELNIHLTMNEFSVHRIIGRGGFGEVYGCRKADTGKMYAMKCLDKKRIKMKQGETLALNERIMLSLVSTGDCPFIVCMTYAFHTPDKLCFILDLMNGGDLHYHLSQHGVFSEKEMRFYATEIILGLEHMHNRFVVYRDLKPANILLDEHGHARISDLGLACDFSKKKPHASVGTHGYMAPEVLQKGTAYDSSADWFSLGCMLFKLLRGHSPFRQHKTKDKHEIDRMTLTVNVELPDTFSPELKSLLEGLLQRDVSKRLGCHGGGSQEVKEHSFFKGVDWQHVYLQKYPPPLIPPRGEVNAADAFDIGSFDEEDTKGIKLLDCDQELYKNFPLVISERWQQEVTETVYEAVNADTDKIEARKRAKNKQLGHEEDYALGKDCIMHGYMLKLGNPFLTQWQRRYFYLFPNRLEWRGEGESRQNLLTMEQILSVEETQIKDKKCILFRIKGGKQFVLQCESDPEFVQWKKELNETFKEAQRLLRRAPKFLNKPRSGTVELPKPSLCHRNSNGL

Take `Cn1c(=O)[nH]c2ccc(-c3cccc(C(=O)NC4CCn5ccnc5C4)c3)cc21` (stereo not drawn) [Z36-MP5]: the remaining binding at 1 µM in experiment [1] is 69%; in [2] it was 53%; in [3] it was 79%; in experiment [4], 59%; in experiment [5] it was 36%; in experiment [6], 98%. For the same compound, the remaining binding at 1 µM was determined as 100% in experiment [7]; 69% in experiment [8]; 78% in experiment [9]; 79% in [10]; 93% in experiment [11]; 91% in experiment [12]. For the same compound, the remaining binding at 1 µM was 78% in experiment [13]; 95% in experiment [14]; 91% in experiment [15]; 95% in experiment [16]; 66% in experiment [17]; 59% in [18]. Further, the remaining binding at 1 µM in [19] turned out to be 55%; in experiment [20], 81%; in experiment [21], 87%; in experiment [22], 37%; in experiment [23], 54%; in experiment [24], 83%.

Values taken from article PMC10924921, “Mi-2β promotes immune evasion in melanoma by activating EZH2 methylation” (Nature Communications, 2024).
